In patent publication US20230073777A1, “CYCLIC-AMP RESPONSE ELEMENT BINDING PROTEIN (CBP) AND/OR ADENOVIRAL E1A BINDING PROTEIN OF 300 KDA (P300) DEGRADATION COMPOUNDS AND METHODS OF USE” (CULLGEN (SHANGHAI), INC., priority 2019, published 2023) one finds inhibition and IC50 data, which are given here for 15 molecules.

In general, IC50 refers to the concentration at which inhibition is half-maximal. A low value points to inhibition by little substance.

Where two headings read alike, the source gives them in different places.

One assay has as its target P300 (Homo sapiens, UniProt Q09472). The assay can be described thus: Immunoblotting of P300 protein levels in LNCaP or 22RV1 cells. The note with it: read-out: Degradation (10 nM). Set-up: LNCaP or 22RV1 cells that express CBP/P300 proteins were treated with GNE-781 or the bivalent compounds; endogenous in cells; host or cells: LNCaP (clone FGC) or 22RV1 cells. The class given is cell-based. In outline: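 P300/CBP levels quantified by chemiluminescent immunoblot band densitometry, normalized against tubulin or vinculin loading controls. Lysates came from LNCaP or 22RV1 cells exposed to compounds or DMSO vehicle for indicated times.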
(Immunoblotting shows a protein as a band on a membrane.)

In the next assay the test system is LNCaP cells. The assay can be described thus: LNCaP cell viability assay (CellTiter-Glo). The class given is cell-based. The note with it: Homo sapiens, 72 h, LNCaP prostate cancer cell viability inhibition, 3 days. The method in brief:
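Three-day treatment of LNCaP cells (5000 per well) across a 12-point, 3-fold dilution series starting at 10 μM. ATP luminescence (CellTiter-Glo) relative to untreated controls gave dose-response curves fitted nonlinearly for IC50.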
(Cellular ATP, detected with luciferase, serves as a proxy for viable cell number.)

The mark [1] stands for this setting: percentage of inhibition of p300 at 10 nM (Table 2).
Setting [2] is: percentage of inhibition of p300 at 10 nM (Table 3).

Chain of P300 (Q09472 whole entry): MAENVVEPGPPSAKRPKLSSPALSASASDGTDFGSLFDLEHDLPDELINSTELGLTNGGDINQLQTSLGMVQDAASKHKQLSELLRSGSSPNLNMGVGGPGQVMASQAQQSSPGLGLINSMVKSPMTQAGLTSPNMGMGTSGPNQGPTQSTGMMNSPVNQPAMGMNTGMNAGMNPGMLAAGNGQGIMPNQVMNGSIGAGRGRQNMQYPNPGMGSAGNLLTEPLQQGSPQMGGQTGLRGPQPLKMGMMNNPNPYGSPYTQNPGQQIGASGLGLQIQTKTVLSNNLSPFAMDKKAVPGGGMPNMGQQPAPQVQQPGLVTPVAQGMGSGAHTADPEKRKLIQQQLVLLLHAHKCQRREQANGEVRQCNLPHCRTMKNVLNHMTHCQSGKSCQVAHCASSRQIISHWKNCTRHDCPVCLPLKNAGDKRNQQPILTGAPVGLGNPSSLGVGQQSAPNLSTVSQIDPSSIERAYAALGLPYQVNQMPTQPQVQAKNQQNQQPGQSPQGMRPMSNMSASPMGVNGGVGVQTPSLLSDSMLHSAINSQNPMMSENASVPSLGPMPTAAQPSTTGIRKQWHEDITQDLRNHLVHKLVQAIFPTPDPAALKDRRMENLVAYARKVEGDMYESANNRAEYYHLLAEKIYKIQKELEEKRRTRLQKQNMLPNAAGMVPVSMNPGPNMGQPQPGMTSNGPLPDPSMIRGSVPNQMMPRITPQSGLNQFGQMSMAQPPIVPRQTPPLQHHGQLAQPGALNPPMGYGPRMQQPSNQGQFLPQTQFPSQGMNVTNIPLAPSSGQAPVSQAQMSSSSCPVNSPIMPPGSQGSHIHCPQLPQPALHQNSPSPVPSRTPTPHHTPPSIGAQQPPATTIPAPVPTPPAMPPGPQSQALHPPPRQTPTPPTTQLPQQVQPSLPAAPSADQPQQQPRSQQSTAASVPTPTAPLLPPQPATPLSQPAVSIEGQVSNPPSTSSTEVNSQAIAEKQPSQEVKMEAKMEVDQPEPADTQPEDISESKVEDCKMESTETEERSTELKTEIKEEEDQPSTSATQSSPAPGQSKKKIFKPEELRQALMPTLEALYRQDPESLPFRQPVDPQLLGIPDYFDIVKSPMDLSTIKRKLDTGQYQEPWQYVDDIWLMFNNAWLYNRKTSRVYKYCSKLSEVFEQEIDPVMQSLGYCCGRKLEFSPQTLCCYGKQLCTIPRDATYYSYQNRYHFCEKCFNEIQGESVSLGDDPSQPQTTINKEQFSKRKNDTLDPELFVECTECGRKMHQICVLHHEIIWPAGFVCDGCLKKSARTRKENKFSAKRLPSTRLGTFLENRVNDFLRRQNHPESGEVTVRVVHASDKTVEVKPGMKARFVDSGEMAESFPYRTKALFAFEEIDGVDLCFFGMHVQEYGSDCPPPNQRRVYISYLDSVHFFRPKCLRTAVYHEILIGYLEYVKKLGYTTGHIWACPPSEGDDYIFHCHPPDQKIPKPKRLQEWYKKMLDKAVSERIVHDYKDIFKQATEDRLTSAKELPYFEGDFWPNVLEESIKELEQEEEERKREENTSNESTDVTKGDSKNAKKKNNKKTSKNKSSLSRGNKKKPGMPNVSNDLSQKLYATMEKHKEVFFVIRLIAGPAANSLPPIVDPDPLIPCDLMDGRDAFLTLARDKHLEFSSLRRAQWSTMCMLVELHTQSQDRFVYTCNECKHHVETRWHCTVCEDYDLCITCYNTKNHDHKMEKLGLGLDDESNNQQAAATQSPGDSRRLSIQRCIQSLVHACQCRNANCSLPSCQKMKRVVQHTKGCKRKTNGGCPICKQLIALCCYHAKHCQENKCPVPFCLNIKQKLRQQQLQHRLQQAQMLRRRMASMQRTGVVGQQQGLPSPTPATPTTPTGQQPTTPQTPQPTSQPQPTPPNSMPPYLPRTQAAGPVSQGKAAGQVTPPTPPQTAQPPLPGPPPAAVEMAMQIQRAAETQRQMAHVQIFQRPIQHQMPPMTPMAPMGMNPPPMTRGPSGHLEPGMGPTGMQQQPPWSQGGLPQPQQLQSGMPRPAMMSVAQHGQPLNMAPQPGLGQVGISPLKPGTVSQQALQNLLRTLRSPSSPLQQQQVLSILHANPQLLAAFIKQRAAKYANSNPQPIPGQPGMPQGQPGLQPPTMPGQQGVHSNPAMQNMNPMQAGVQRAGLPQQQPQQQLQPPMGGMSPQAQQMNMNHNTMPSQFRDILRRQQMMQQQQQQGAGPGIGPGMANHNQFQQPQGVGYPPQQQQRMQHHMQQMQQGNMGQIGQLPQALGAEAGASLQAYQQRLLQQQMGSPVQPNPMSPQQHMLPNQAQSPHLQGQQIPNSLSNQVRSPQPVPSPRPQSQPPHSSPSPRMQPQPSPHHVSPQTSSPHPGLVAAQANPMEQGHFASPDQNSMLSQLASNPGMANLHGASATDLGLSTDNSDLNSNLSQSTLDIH

On to `CNC(=O)N1CCc2c(c(N3CCCc4cc(-c5cnn(CC(=O)NCCOCCOCCNc6ccc7c(c6)C(=O)N(C6CCC(=O)NC6=O)C7=O)c5)c(C(F)F)cc43)nn2C2CCOCC2)C1` (stereo not drawn) [P-029], for which the inhibition at 0.01 µM at P300 (setting [1]) is less than 20%. In the assay with LNCaP cells (CellTiter-Glo (Table 2)), this molecule displayed an IC50 of 578 nM.

On to `CC(=O)N1CCc2c(c(N3CCCc4cc(-c5cnn(C)c5)c(C(F)F)cc43)nn2C2CCN(CCCCCCNc3cccc4c3C(=O)N(C3CCC(=O)NC3=O)C4=O)CC2)C1` (stereo not drawn) [P-112, 4-((6-(4-(5-acetyl-3-(7-(difluoromethyl)-6-(1-methyl-1H-pyrazol-4-yl)-3,4-dihydroquinolin-1(2H)-yl)-4,5,6,7-tetrahydro-1H-pyrazolo[4,3-c]pyridin-1-yl)piperidin-1-yl)hexyl)amino)-2-(2,6-dioxopiperidin-3-yl)isoindoline-1,3-dione], for which the inhibition at 0.01 µM at P300 (setting [2]) was more than 80%. In addition, the IC50 with LNCaP cells (CellTiter-Glo (Table 3)) came out at 2.1 nM.

As for `CNC(=O)N1CCc2c(c(N3CCCc4cc(-c5cnn(CC(=O)NCCOCCOCCOCC(=O)N[C@H](C(=O)N6C[C@H](O)C[C@H]6C(=O)NCc6ccc(-c7scnc7C)cc6)C(C)(C)C)c5)c(C(F)F)cc43)nn2C2CCOCC2)C1` [P-076, 3-(7-(Difluoromethyl)-6-(1-((S)-16-((2S,4R)-4-hydroxy-2-((4-(4-methylthiazol-5-yl)benzyl)carbamoyl)pyrrolidine-1-carbonyl)-17,17-dimethyl-2,14-dioxo-6,9,12-trioxa-3,15-diazaoctadecyl)-1H-pyrazol-4-yl)-3,4-dihydroquinolin-1(2H)-yl)-N-methyl-1-(tetrahydro-2H-pyran-4-yl)-1,4,6,7-tetrahydro-5H-pyrazolo[4,3-c]pyridine-5-carboxamide], on P300 (setting [2]), the inhibition at 0.01 µM was less than 20%. The IC50 with LNCaP cells (CellTiter-Glo (Table 3)) was more than 10000 nM.

On to `CNC(=O)N1CCc2c(c(N3CCCc4cc(-c5cnn(CC(=O)NCCOCCNc6ccc7c(c6)C(=O)N(C6CCC(=O)NC6=O)C7=O)c5)c(C(F)F)cc43)nn2C2CCOCC2)C1` (stereo not drawn) [P-028, 3-(7-(Difluoromethyl)-6-(1-(2-((2-(2-((2-(2,6-dioxopiperidin-3-yl)-1,3-dioxoisoindolin-5-yl)amino)ethoxy)ethyl)amino)-2-oxoethyl)-1H-pyrazol-4-yl)-3,4-dihydroquinolin-1(2H)-yl)-N-methyl-1-(tetrahydro-2H-pyran-4-yl)-1,4,6,7-tetrahydro-5H-pyrazolo[4,3-c]pyridine-5-carboxamide], for which the inhibition at 0.01 µM at P300 (setting [1]) was less than 20%. This molecule gave a 50% inhibitory concentration (IC50) with LNCaP cells (CellTiter-Glo (Table 2)) of 1040 nM.

Turning to `CC(=O)N1CCc2c(c(N3CCCc4cc(-c5cnn(C)c5)c(C(F)F)cc43)nn2C2CCN(C(=O)CCCCCNc3cccc4c3n(C)c(=O)n4C3CCC(=O)NC3=O)CC2)C1` (stereo not drawn) [P-110, 3-(4-((6-(4-(5-acetyl-3-(7-(difluoromethyl)-6-(1-methyl-1H-pyrazol-4-yl)-3,4-dihydroquinolin-1(2H)-yl)-4,5,6,7-tetrahydro-1H-pyrazolo[4,3-c]pyridin-1-yl)piperidin-1-yl)-6-oxohexyl)amino)-3-methyl-2-oxo-2,3-dihydro-1H-benzo[d]imidazol-1-yl)piperidine-2,6-dione], the inhibition at 0.01 µM on P300 (setting [2]) was more than 80%. In the assay with LNCaP cells (CellTiter-Glo (Table 3)), the IC50 was found to be 31.1 nM.

For `CC(=O)N1CCc2c(c(N3CCCc4cc(-c5cnn(C)c5)c(C(F)F)cc43)nn2C2CCN(CC3CCN(CCCc4cccc5c4C(=O)N(C4CCC(=O)NC4=O)C5=O)CC3)CC2)C1` (stereo not drawn) [P-149, 4-(3-(4-((4-(5-acetyl-3-(7-(difluoromethyl)-6-(1-methyl-1H-pyrazol-4-yl)-3,4-dihydroquinolin-1(2H)-yl)-4,5,6,7-tetrahydro-1H-pyrazolo[4,3-c]pyridin-1-yl)piperidin-1-yl)methyl)piperidin-1-yl)propyl)-2-(2,6-dioxopiperidin-3-yl)isoindoline-1,3-dione], the inhibition at 0.01 µM at P300 (setting [2]) is more than 80%. This molecule came in with an IC50 in the assay with LNCaP cells (CellTiter-Glo (Table 3)) of 11.4 nM.

Regarding `CNC(=O)N1CCc2c(c(N3CCCc4cc(-c5cnn(CC(=O)NCC(=O)N[C@H](C(=O)N6C[C@H](O)C[C@H]6C(=O)NCc6ccc(-c7scnc7C)cc6)C(C)(C)C)c5)c(C(F)F)cc43)nn2C2CCOCC2)C1` [P-044], the inhibition at 0.01 µM on P300 (setting [1]) is less than 20%. This molecule gave an IC50 with LNCaP cells (CellTiter-Glo (Table 2)) of more than 10000 nM.

For `CC(=O)N1CCc2c(c(N3CCCc4cc(-c5cnn(C)c5)c(C(F)F)cc43)nn2C2CCN(C(=O)CCCCNc3cccc4nc(C)n(C5CCC(=O)NC5=O)c(=O)c34)CC2)C1` (stereo not drawn) [P-154, 3-(5-((5-(4-(5-Acetyl-3-(7-(difluoromethyl)-6-(1-methyl-1H-pyrazol-4-yl)-3,4-dihydroquinolin-1(2H)-yl)-4,5,6,7-tetrahydro-1H-pyrazolo[4,3-c]pyridin-1-yl)piperidin-1-yl)-5-oxopentyl)amino)-2-methyl-4-oxoquinazolin-3(4H)-yl)piperidine-2,6-dione], the inhibition at 0.01 µM on P300 (setting [2]) lay within 20 to 50%. For the same molecule, in the assay on LNCaP cells (CellTiter-Glo (Table 3)), the IC50 was more than 1000 nM.

On to `CNC(=O)N1CCc2c(c(N3CCCc4cc(-c5cnn(C)c5)c(C(F)F)cc43)nn2C2CCN(C(=O)CCOCCOCCOCCNc3cccc4c3C(=O)N(C3CCC(=O)NC3=O)C4=O)CC2)C1` (stereo not drawn) [P-053, 3-(7-(Difluoromethyl)-6-(1-methyl-1H-pyrazol-4-yl)-3,4-dihydroquinolin-1(2H)-yl)-1-(1-(3-(2-(2-(2-((2-(2,6-dioxopiperidin-3-yl)-1,3-dioxoisoindolin-4-yl)amino)ethoxy)ethoxy)ethoxy)propanoyl)piperidin-4-yl)-N-methyl-1,4,6,7-tetrahydro-5H-pyrazolo[4,3-c]pyridine-5-carboxamide], for which the inhibition at 0.01 µM at P300 (setting [2]) lay within 20 to 50%. Half-maximal inhibition in the assay with LNCaP cells (CellTiter-Glo (Table 3)) (IC50) required 76.5 nM.

Turning to `CNC(=O)N1CCc2c(c(N3CCCc4cc(-c5cnn(CC(=O)NCCOCCOCCNc6cccc7c6C(=O)N(C6CCC(=O)NC6=O)C7=O)c5)c(C(F)F)cc43)nn2C2CCOCC2)C1` (stereo not drawn) [P-022, 3-(7-(Difluoromethyl)-6-(1-(2-((2-(2-(2-((2-(2,6-dioxopiperidin-3-yl)-1,3-dioxoisoindolin-4-yl)amino)ethoxy)ethoxy)ethyl)amino)-2-oxoethyl)-1H-pyrazol-4-yl)-3,4-dihydroquinolin-1(2H)-yl)-N-methyl-1-(tetrahydro-2H-pyran-4-yl)-1,4,6,7-tetrahydro-5H-pyrazolo[4,3-c]pyridine-5-carboxamide], the inhibition at 0.01 µM at P300 (setting [1]) was less than 20%. Moreover, the IC50 with LNCaP cells (CellTiter-Glo (Table 2)) is 389 nM.

`CC(=O)N1CCc2c(c(N3CCCc4cc(-c5cnn(C)c5)c(C(F)F)cc43)nn2C2CCN(Cc3ccc(CCOc4cccc5c4CN(C4CCC(=O)NC4=O)C5=O)cc3)CC2)C1` (stereo not drawn) [P-174, 3-(4-(4-((4-(5-acetyl-3-(7-(difluoromethyl)-6-(1-methyl-1H-pyrazol-4-yl)-3,4-dihydroquinolin-1(2H)-yl)-4,5,6,7-tetrahydro-1H-pyrazolo[4,3-c]pyridin-1-yl)piperidin-1-yl)methyl)phenethoxy)-1-oxoisoindolin-2-yl)piperidine-2,6-dione]: the inhibition at 0.01 µM at P300 (setting [2]) is more than 80%. The same molecule returned an IC50 in the assay on LNCaP cells (CellTiter-Glo (Table 3)) of 0.4 nM.

As for `CNC(=O)N1CCc2c(c(N3CCCc4cc(-c5cnn(C)c5)c(C(F)F)cc43)nn2C2CCN(C(=O)CCOCCOCCOCCNc3ccc4c(c3)C(=O)N(C3CCC(=O)NC3=O)C4=O)CC2)C1` (stereo not drawn) [P-010, 3-(7-(Difluoromethyl)-6-(1-methyl-1H-pyrazol-4-yl)-3,4-dihydroquinolin-1(2H)-yl)-1-(1-(3-(2-(2-(2-((2-(2,6-dioxopiperidin-3-yl)-1,3-dioxoisoindolin-5-yl)amino)ethoxy)ethoxy)ethoxy)propanoyl)piperidin-4-yl)-N-methyl-1,4,6,7-tetrahydro-5H-pyrazolo[4,3-c]pyridine-5-carboxamide], at P300 (setting [1]), the inhibition at 0.01 µM is 20 to 50%. In the assay with LNCaP cells (CellTiter-Glo (Table 2)), this molecule came in with an IC50 of 152 nM.

For `CC(=O)N1CCc2c(c(N3CCCc4cc(-c5cnn(C)c5)c(C(F)F)cc43)nn2C2CCN(C(=O)CCCCCn3c(=O)n(C4CCC(=O)NC4=O)c4ccccc43)CC2)C1` (stereo not drawn) [P-107, 3-(3-(6-(4-(5-Acetyl-3-(7-(difluoromethyl)-6-(1-methyl-1H-pyrazol-4-yl)-3,4-dihydroquinolin-1(2H)-yl)-4,5,6,7-tetrahydro-1H-pyrazolo[4,3-c]pyridin-1-yl)piperidin-1-yl)-6-oxohexyl)-2-oxo-2,3-dihydro-1H-benzo[d]imidazol-1-yl)piperidine-2,6-dione], on P300, the inhibition at 0.01 µM was in the range of 50 to 80%. In addition, in the assay with LNCaP cells (CellTiter-Glo (Table 3)), the IC50 came out at 20.4 nM.

With `CNC(=O)N1CCc2c(c(N3CCCc4cc(-c5cnn(C)c5)c(C(F)F)cc43)nn2C2CCN(C(=O)CCCCNc3cccc4c3n(C)c(=O)n4C3CCC(=O)NC3=O)CC2)C1` (stereo not drawn) [P-127, 3-(7-(Difluoromethyl)-6-(1-methyl-1H-pyrazol-4-yl)-3,4-dihydroquinolin-1(2H)-yl)-1-(1-(5-((1-(2,6-dioxopiperidin-3-yl)-3-methyl-2-oxo-2,3-dihydro-1H-benzo[d]imidazol-4-yl)amino)pentanoyl)piperidin-4-yl)-N-methyl-1,4,6,7-tetrahydro-5H-pyrazolo[4,3-c]pyridine-5-carboxamide], the inhibition at 0.01 µM on P300 (setting [2]) lay in the range of 20 to 50%. The molecule also gave an IC50 with LNCaP cells (CellTiter-Glo (Table 3)) of 402 nM.

With `CNC(=O)N1CCc2c(c(N3CCCc4cc(-c5cnn(C)c5)c(C(F)F)cc43)nn2C2CCN(C(=O)CCCCCCNc3ccc4c(c3)n(C)c(=O)n4C3CCC(=O)NC3=O)CC2)C1` (stereo not drawn) [P-129, 3-(7-(difluoromethyl)-6-(1-methyl-1H-pyrazol-4-yl)-3,4-dihydroquinolin-1(2H)-yl)-1-(1-(7-((1-(2,6-dioxopiperidin-3-yl)-3-methyl-2-oxo-2,3-dihydro-1H-benzo[d]imidazol-5-yl)amino)heptanoyl)piperidin-4-yl)-N-methyl-1,4,6,7-tetrahydro-5H-pyrazolo[4,3-c]pyridine-5-carboxamide], the inhibition at 0.01 µM at P300 (setting [2]) was more than 80%. The IC50 with LNCaP cells (CellTiter-Glo (Table 3)) came out at 0.2 nM.
